Drawing on patent US9845330B2, “6-nitro-2,3-dihydroimidazo[2,1-b]oxazoles and a process for the preparation thereof” (priority 2013, dated 2017), this text covers MIC, Cytotoxicity and selectivity ratio for 24 molecules.

A word on the MIC: it is the lowest concentration that inhibits growth of the organism.

In brackets after ≈: the same amount, converted by molar mass. Where two headings read alike, the source gives them in different places.

Holding throughout (type): cell-based
The test system of data set [1] is M. tuberculosis H37Rv (ATCC 27294). The experiment in a line: MIC by broth dilution method, M. tuberculosis H37Rv. To be noted: Mycobacterium tuberculosis. (In general: In broth dilution the organism is exposed to a series of concentrations in liquid medium.)
In data set [2] the test system is macrophage J774 cells line. The experiment in a line: Cytotoxicity assay (MTT) in macrophage J774 cells. To be noted: J774 cells, 24 hrs, MTT. The protocol:
(§1) The study was carried out using macrophage J774 cells line (ATCC-USA). Cells were grown in Rosewell Park Memorial Institute Medium (RPMI) containing 10% fetal calf serum (FCS) and supplemented with 75 mg/liter penicillin, 100 mg/liter streptomycin, 110 mg/liter Sodium pyruvate, 2.38 gm/liter HEPES, 0.05 mM 2 β-mercaptoethanol, and 2 gm/liter NaHCO3, in a humidified atmosphere in 5% CO2 at 37° C., and were sub-cultured at 1:4 ratio once a week.
(§2) Cells were plated at a density of 3×10^4 cells/cm^2 and maintained in culture medium for 12 hours. Cells were seeded onto 96-well flat bottom plates and FCS was reduced to 5% for the experiment. Stock solutions of compounds IA1 to IIC10 were prepared fresh to avoid oxidation. Cells were incubated with the compounds (40 μg/ml) for 24 hrs.
(§3) After the completion of incubation, the medium was removed and cell viability was evaluated by assaying for the ability of functional mitochondria to catalyze the reduction of 3-(4,5-dimethylthiazol-2-yl)-2,5-diphenyltetrazolium bromide (MTT) to form formazan salt by mitochondrial dehydrogenases, and determined by Elisa reader at 450 nm (Multiskan Spectrum; Thermo Electron Corporation, USA). Percentage cytotoxicity was calculated with respect to the untreated cells.

A short description of data set [3]: Cytotoxicity assay (MTT) in macrophage J774 cells. To be noted: mouse, J774 macrophage cells; also called safety index. On the procedure:
as §1, §2, §3

Where [4] appears, read: 504 h, broth dilution, 3 weeks, read-out: MIC M. tb H37Rv.
Setting [5] is: 504 h, text summary: sensitive H37Rv as well as MDR and XDR strains of M. tuberculosis, read-out: MIC value.

For `CCCCCc1cn(-c2ccc(OC[C@@]3(C)Cn4cc([N+](=O)[O-])nc4O3)cc2)nn1` [IA15, (R)-2-{4-[4-pentyl-1H-1,2,3-triazol-1-yl]phenoxymethyl}-2,3-dihydro-2-methyl-6-nitroimidazo[2,1-b]oxazole], the MIC in data set [1] (setting [4]) came to 32 µg/mL (≈ 77.6 µM). The same molecule yielded a Cytotoxicity in data set [2] above 40 µg/mL. For the same molecule, the selectivity ratio at 24 h, 40 μg/ml in data set [3] was above 10.
As to `Cc1ccc(OCc2cn(-c3ccc(OC[C@@]4(C)Cn5cc([N+](=O)[O-])nc5O4)cc3)nn2)cc1` [IA29], the MIC in data set [1] (setting [4]) came out at 32 µg/mL (≈ 69.2 µM). Moreover, in data set [2], the Cytotoxicity was above 40 µg/mL. The selectivity ratio at 24 h, 40 μg/ml in data set [3] was above 10.
`COc1ccc(-c2cn(-c3ccc(OC[C@@]4(C)Cn5cc([N+](=O)[O-])nc5O4)cc3)nn2)cc1` [IA11, (R)-2-{4-[4-(4-methoxyphenyl)-1H-1,2,3-triazol-1-yl]phenoxymethyl}-2,3-dihydro-2-methyl-6-nitroimidazo[2,1-b]oxazole]: the MIC was 0.25 µg/mL (≈ 0.557 µM) in data set [1] (setting [4]); below 1 µg/mL in data set [1] (read-out: MIC value, text summary: sensitive H37Rv as well as MDR and XDR strains of M. tuberculosis). In data set [2], this molecule gave a Cytotoxicity above 40 µg/mL. Moreover, the selectivity ratio at 24 h, 40 μg/ml in data set [3] was above 10.
Regarding `CCOC(=O)N1CCN(S(=O)(=O)c2ccc(OC[C@@]3(C)Cn4cc([N+](=O)[O-])nc4O3)cc2)CC1` [IIC5, (R)-ethyl-{4-[4-(2-methyl-6-nitro-2,3-dihydroimidazo[2,1-b]oxazol-2yl)methoxyphenyl]sulfonyl}piperazine-1-carboxylate], the MIC in data set [1] (setting [4]) was 2 µg/mL (≈ 4.04 µM). This molecule also had a Cytotoxicity in data set [2] above 40 µg/mL. For the same molecule, the selectivity ratio at 24 h, 40 μg/ml in data set [3] is above 10.
`CCc1ccc(-c2cc(-c3ccc(OC[C@@]4(C)Cn5cc([N+](=O)[O-])nc5O4)cc3)no2)cc1` [IC2, (R)-2-{4-[5-(4-ethylphenyl)isoxazol-3-yl]phenoxymethyl}-2,3-dihydro-2-methyl-6-nitroimidazo[2,1-b]oxazole]: the MIC in data set [1] (setting [4]) was determined as 2 µg/mL (≈ 4.48 µM). Moreover, the Cytotoxicity in data set [2] was above 40 µg/mL. Besides, the selectivity ratio at 24 h, 40 μg/ml in data set [3] was above 10.
Turning to `Cc1ccc(NS(=O)(=O)c2ccc(OC[C@@]3(C)Cn4cc([N+](=O)[O-])nc4O3)cc2)cc1` [IIB1, (R)-4-{(2-methyl-6-nitro-2,3-dihydroimidazo[2,1-b]oxazol-2-yl)methoxy}-N-(p-tolyl)benzenesulfonamide], the MIC in data set [1] (setting [4]) turned out to be 2 µg/mL (≈ 4.5 µM). For the same molecule, the Cytotoxicity in data set [2] is above 40 µg/mL.
Consider `C[C@]1(COc2cccc(-n3cc(-c4ccc(OC(F)(F)F)cc4)nn3)c2)Cn2cc([N+](=O)[O-])nc2O1` [IA19, (R)-2-{3-[4-(4-trifluoromethoxyphenyl)-1H-1,2,3-triazol-1-yl]phenoxymethyl}-2,3-dihydro-2-methyl-6-nitroimidazo[2,1-b]oxazole], for which the MIC in data set [1] (setting [4]) was 4 µg/mL (≈ 7.96 µM). Further, in data set [2], the Cytotoxicity was above 40 µg/mL.
For the molecule `C[C@]1(COc2ccc(-n3nnnc3Oc3ccc(F)cc3)cc2)Cn2cc([N+](=O)[O-])nc2O1` [IB7, (R)-2-{4-[5-(4-fluorophenoxy)-1H-tetrazol-1-yl]phenoxymethyl}-2,3-dihydro-2-methyl-6-nitroimidazo[2,1-b]oxazole], the MIC in data set [1] (setting [4]) was 2 µg/mL (≈ 4.41 µM); in data set [1] (setting [5]), 1 to 4 µg/mL (≈ 2.21 to 8.82 µM). In data set [2], this molecule showed a Cytotoxicity above 40 µg/mL.
In the case of `C[C@]1(COc2ccc(-n3nnnc3Oc3ccc(C(F)(F)F)cc3)cc2)Cn2cc([N+](=O)[O-])nc2O1` [IB8, (R)-2-{4-[5-(4-trifluoromethylphenoxy)-1H-tetrazol-1-yl]phenoxymethyl}-2,3-dihydro-2-methyl-6-nitroimidazo[2,1-b]oxazole], the MIC is 4 µg/mL (≈ 7.95 µM) in data set [1] (setting [4]) and 1 to 4 µg/mL (≈ 1.99 to 7.95 µM) in data set [1] (setting [5]). For the same molecule, in data set [2], the Cytotoxicity is above 40 µg/mL.
`C[C@]1(COc2ccc(-n3nnnc3Oc3ccc(OC(F)(F)F)cc3)cc2)Cn2cc([N+](=O)[O-])nc2O1` [IB10, (R)-2-{4-[5-(4-trifluoromethoxyphenoxy)-1H-tetrazol-1-yl]phenoxymethyl}-2,3-dihydro-2-methyl-6-nitroimidazo[2,1-b]oxazole]: the MIC is 1 µg/mL (≈ 1.93 µM) in data set [1] (setting [4]) and 1 to 4 µg/mL (≈ 1.93 to 7.7 µM) in data set [1] (setting [5]). This molecule yielded a Cytotoxicity in data set [2] above 40 µg/mL.
On to `C[C@]1(COc2cccc(-n3cc(-c4ccc(F)cc4F)nn3)c2)Cn2cc([N+](=O)[O-])nc2O1` [IA20, (R)-2-{3-[4-(2,4-difluorophenyl)-1H-1,2,3-triazol-1-yl]phenoxymethyl}-2,3-dihydro-2-methyl-6-nitroimidazo[2,1-b]oxazole], for which the MIC in data set [1] (setting [4]) amounted to 4 µg/mL (≈ 8.8 µM). Besides, the Cytotoxicity in data set [2] was above 40 µg/mL.
In the case of `C[C@]1(COc2ccc(-n3cc(-c4ccccc4F)nn3)cc2)Cn2cc([N+](=O)[O-])nc2O1` [IA4, (R)-2-{4-[4-(2-fluorophenyl)-1H-1,2,3-triazol-1-yl]phenoxymethyl}-2,3-dihydro-2-methyl-6-nitroimidazo[2,1-b]oxazole], the MIC in data set [1] (setting [4]) worked out at 1 µg/mL (≈ 2.29 µM). The molecule also showed a Cytotoxicity in data set [2] above 40 µg/mL.
With `COc1ccc(NC(=S)Nc2ccc(OC[C@@]3(C)Cn4cc([N+](=O)[O-])nc4O3)cc2)cc1` [IIA7, (R)-1-(4-methoxyphenyl)-3-{4-(2-methyl-6-nitro-2,3-dihydroimidazo[2,1-b]oxazol-2-yl)methoxyphenyl}thiourea], the MIC in data set [1] (setting [4]) was 2 µg/mL (≈ 4.39 µM). For the same molecule, the Cytotoxicity in data set [2] was above 40 µg/mL.
For the molecule `C[C@]1(COc2ccc(-n3cc(-c4ccc(F)cc4F)nn3)cc2)Cn2cc([N+](=O)[O-])nc2O1` [IA7, (R)-2-{4-[4-(2,4-difluorophenyl)-1H-1,2,3-triazol-1-yl]phenoxymethyl}-2,3-dihydro-2-methyl-6-nitroimidazo[2,1-b]oxazole], in data set [1] (setting [4]), the MIC was 2 µg/mL (≈ 4.4 µM). The same molecule displayed a Cytotoxicity in data set [2] above 40 µg/mL.
For the molecule `CN(c1ccc(C(F)(F)F)cc1)S(=O)(=O)c1ccc(OC[C@@]2(C)Cn3cc([N+](=O)[O-])nc3O2)cc1` [IIB6, (R)—N-methyl-4-{(2-methyl-6-nitro-2,3-dihydroimidazo[2,1-b]oxazol-2-yl)methoxy}-N-(p-trifluoromethylphenyl)benzenesulfonamide], in data set [1] (setting [4]), the MIC turned out to be 1 µg/mL (≈ 1.95 µM). Also, the Cytotoxicity in data set [2] is above 40 µg/mL.
In the case of `C[C@]1(COc2ccccc2-n2cc(-c3ccc(F)cc3)nn2)Cn2cc([N+](=O)[O-])nc2O1` [IA21, (R)-2-{2-[4-(4-fluorophenyl)-1H-1,2,3-triazol-1-yl]phenoxymethyl}-2,3-dihydro-2-methyl-6-nitroimidazo[2,1-b]oxazole], the MIC in data set [1] (setting [4]) was 1 µg/mL (≈ 2.29 µM). For the same molecule, the Cytotoxicity in data set [2] is above 40 µg/mL.
Turning to `C[C@]1(COc2ccccc2-n2cc(-c3ccc(C(F)(F)F)cc3)nn2)Cn2cc([N+](=O)[O-])nc2O1` [IA22, (R)-2-{2-[4-(4-trifluoromethylphenyl)-1H-1,2,3-triazol-1-yl]phenoxymethyl}-2,3-dihydro-2-methyl-6-nitroimidazo[2,1-b]oxazole], the MIC in data set [1] (setting [4]) came out at 4 µg/mL (≈ 8.22 µM). This molecule also yielded a Cytotoxicity in data set [2] above 40 µg/mL.
In the case of `C[C@]1(COc2ccc(NC(=S)Nc3ccc(F)cc3)cc2)Cn2cc([N+](=O)[O-])nc2O1` [IIA9, (R)-1-(4-fluorophenyl)-3-{4-(2-methyl-6-nitro-2,3-dihydroimidazo[2,1-b]oxazol-2-yl)methoxyphenyl}thiourea], in data set [1] (setting [4]), the MIC was 4 µg/mL (≈ 9.02 µM). In data set [2], this molecule had a Cytotoxicity above 40 µg/mL.
For the molecule `CCc1ccc(-c2nnnn2-c2ccc(OC[C@@]3(C)Cn4cc([N+](=O)[O-])nc4O3)cc2)cc1` [IB6, (R)-2-{4-[5-(4-ethylphenyl)-1H-tetrazol-1-yl]phenoxymethyl}-2,3-dihydro-2-methyl-6-nitroimidazo[2,1-b]oxazole], the MIC was 2 µg/mL (≈ 4.47 µM) in data set [1] (setting [4]) and 1 to 4 µg/mL (≈ 2.23 to 8.94 µM) in data set [1] (setting [5]). The molecule further gave a Cytotoxicity in data set [2] above 40 µg/mL.
Turning to `C[C@]1(COc2ccccc2-n2cc(-c3ccc(OC(F)(F)F)cc3)nn2)Cn2cc([N+](=O)[O-])nc2O1` [IA23, (R)-2-{2-[4-(4-trifluoromethoxyphenyl)-1H-1,2,3-triazol-1-yl]phenoxymethyl}-2,3-dihydro-2-methyl-6-nitroimidazo[2,1-b]oxazole], the MIC in data set [1] (setting [4]) was determined as 4 µg/mL (≈ 7.96 µM). For the same molecule, the Cytotoxicity in data set [2] was above 40 µg/mL.
As for `CCCCCCCc1cn(-c2ccc(OC[C@@]3(C)Cn4cc([N+](=O)[O-])nc4O3)cc2)nn1` [IA16, (R)-2-{4-[4-heptyl-1H-1,2,3-triazol-1-yl]phenoxymethyl}-2,3-dihydro-2-methyl-6-nitroimidazo[2,1-b]oxazole], the MIC in data set [1] (setting [4]) turned out to be 4 µg/mL (≈ 9.08 µM). The same molecule had a Cytotoxicity in data set [2] above 40 µg/mL.
In the same order, the values of `C[C@]1(COc2ccc(NC(=S)Nc3ccc(OC(F)(F)F)cc3)cc2)Cn2cc([N+](=O)[O-])nc2O1` [IIA8, (R)-1-(4-trifluoromethoxyphenyl)-3-{4-(2-methyl-6-nitro-2,3-dihydroimidazo[2,1-b]oxazol-2-yl)methoxyphenyl}thiourea] are 2 µg/mL (≈ 3.93 µM) and above 40 µg/mL.
With `C[C@]1(COc2ccc(-n3cc(-c4cccc(F)c4)nn3)cc2)Cn2cc([N+](=O)[O-])nc2O1` [IA10, (R)-2-{4-[4-(3-fluorophenyl)-1H-1,2,3-triazol-1-yl]phenoxymethyl}-2,3-dihydro-2-methyl-6-nitroimidazo[2,1-b]oxazole], in data set [1] (setting [4]), the MIC was 2 µg/mL (≈ 4.58 µM). The Cytotoxicity in data set [2] was above 40 µg/mL.
For `CC(C)c1ccc(OCc2cn(-c3cccc(OC[C@@]4(C)Cn5cc([N+](=O)[O-])nc5O4)c3)nn2)cc1` [IA38], the MIC in data set [1] (setting [4]) was 4 µg/mL (≈ 8.15 µM). The same molecule gave a Cytotoxicity in data set [2] above 40 µg/mL.
